Measured values: patent US20240034999A1, “IMPROVED REPROGRAMMING, MAINTENANCE AND PRESERVATION FOR INDUCED PLURIPOTENT STEM CELLS” (Fate Therapeutics, Inc., priority 2020, published 2024)

Test system: Human T cells transfected with reprogramming plasmids
Assay: T cell reprogramming efficiency, flow cytometry of iPSC surface markers
Assay type: cell-based
Settings: VPA from around day 2-3 post transfection; three T cell donors; versus no VPA
Experimental: Flow Cytometry Analysis and Sorting Single cell dissociated reprogramming pools were resuspended in chilled staining buffer. Conjugated primary antibodies, including SSEA4-FITC, TRA181-Alexa Fluor-647 and CD30-PE (BD Biosciences), were added to the cell solution and incubated on ice for 15 min. All antibodies were used at 7-10 μL in 100 μL staining buffer per million cells. The resuspended dissociated single cells in staining buffer were spun down and resuspended in staining buffer now containing a ROCK inhibitor and maintained on ice for flow cytometry sorting. Flow cytometry sorting was performed on FACS Aria II (BD Biosciences). The sorted cells were directly ejected into 96-well plates at concentrations of 3 and 9 events per well. Each well was prefilled with FMM2. Upon completion of the sort, 96-well plates were incubated for colony formation and expansion. Seven to ten days post sort, the cells were passaged. Subsequent passages in FMM2 were done routinely upon 75-90% confluency. Flow cytometry analysis was performed on Guava EasyCyte 8 HT (Millipore) and analyzed using FCS Express 4 (De Novo Software). Human T cells from three different donors were transfected with the above reprogramming plasmids on day 0. […] The expression of iPSC surface markers (SSEA4, TRA-1-81, and CD30) was analyzed by flow cytometry.

Structure (SMILES): CCCC(CCC)C(=O)O [VPA, valproic acid]
- percentage of SSEA4+TRA-1-81+CD30+ iPSC cells in the population: significantly increased
